Assay [1] deals with Delta-type opioid receptor (Mus musculus, UniProt P32300). Nature of the assay: Agonist activity at delta opioid receptor in mouse vas deferens assessed as inhibition of electrically-stimulated muscle contraction. The format is functional, tissue-based.
The nature of assay [2]: Agonist activity at CCK receptor in Hartley guinea pig ileum longitudinal muscle with myenteric plexus assessed as inhibition of electrically-stimulated muscle contraction at 1 uM relative to KCl. The format is functional, Cavia porcellus. Details: scale not given: the % may be the effect or the level left.
Assay [3] addresses Delta-type opioid receptor (Homo sapiens, UniProt P41143). As to the kind of experiment: Displacement of [3H]DPDPE from human delta opioid receptor expressed in mouse HN9.10 cells. The format is cell-based.
Assay [4] concerns the target Mu-type opioid receptor (Rattus norvegicus, UniProt P33535). As to the kind of experiment: Displacement of [3H]DAMGO from rat mu opioid receptor expressed in mouse HN9.10 cells. The format is cell-based. On the technique in general: Loss of bound radioactivity is the signal in a displacement assay; it reports binding, not function.
Assay [5] concerns the target T1, Cholecystokinin receptor type A (Homo sapiens, UniProt P32238).
T1 sequence (P32238 whole entry): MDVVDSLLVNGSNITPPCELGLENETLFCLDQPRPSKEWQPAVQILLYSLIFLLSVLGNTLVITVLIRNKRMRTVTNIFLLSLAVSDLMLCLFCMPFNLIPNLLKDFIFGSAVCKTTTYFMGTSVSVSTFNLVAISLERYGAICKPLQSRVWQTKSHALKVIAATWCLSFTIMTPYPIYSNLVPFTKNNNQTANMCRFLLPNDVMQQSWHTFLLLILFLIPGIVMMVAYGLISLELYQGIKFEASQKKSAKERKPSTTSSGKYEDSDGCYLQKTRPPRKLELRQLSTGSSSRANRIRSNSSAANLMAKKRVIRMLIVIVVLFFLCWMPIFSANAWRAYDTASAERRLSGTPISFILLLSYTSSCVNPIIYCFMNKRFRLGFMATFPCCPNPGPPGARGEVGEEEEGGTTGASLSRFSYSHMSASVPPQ
As to the kind of experiment: Displacement of [125I]CCK-8(SO3) from human CCK1 receptor expressed in human HEK293 cells. The format is cell-based.

The target in assay [6] is T2, Gastrin/cholecystokinin type B receptor (Homo sapiens, UniProt P32239).
T2 sequence (P32239 whole entry): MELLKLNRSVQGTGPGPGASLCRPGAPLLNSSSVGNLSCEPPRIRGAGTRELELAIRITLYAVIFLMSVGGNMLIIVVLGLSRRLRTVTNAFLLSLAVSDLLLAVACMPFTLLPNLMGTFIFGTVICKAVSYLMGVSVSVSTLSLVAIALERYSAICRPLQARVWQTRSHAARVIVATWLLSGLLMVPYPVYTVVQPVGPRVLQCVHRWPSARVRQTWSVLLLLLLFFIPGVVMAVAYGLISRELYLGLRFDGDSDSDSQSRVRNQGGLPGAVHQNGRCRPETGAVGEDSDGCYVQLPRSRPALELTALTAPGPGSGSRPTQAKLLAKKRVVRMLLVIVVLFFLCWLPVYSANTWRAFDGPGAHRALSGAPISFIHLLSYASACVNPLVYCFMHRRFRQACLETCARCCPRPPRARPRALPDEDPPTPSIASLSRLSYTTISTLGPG
Nature of the assay: Displacement of [125I]CCK-8(SO3) from human CCK2 receptor expressed in human HEK293 cells. The format is cell-based.

The target of the next assay is Melanocortin receptor 4 (Homo sapiens, UniProt P32245). Nature of the assay: Displacement of Eu-NDP-alphaMSH from human MC4 receptor expressed in human HEK293 cells. The format is cell-based.
Chain of Melanocortin receptor 4 (P32245 whole entry): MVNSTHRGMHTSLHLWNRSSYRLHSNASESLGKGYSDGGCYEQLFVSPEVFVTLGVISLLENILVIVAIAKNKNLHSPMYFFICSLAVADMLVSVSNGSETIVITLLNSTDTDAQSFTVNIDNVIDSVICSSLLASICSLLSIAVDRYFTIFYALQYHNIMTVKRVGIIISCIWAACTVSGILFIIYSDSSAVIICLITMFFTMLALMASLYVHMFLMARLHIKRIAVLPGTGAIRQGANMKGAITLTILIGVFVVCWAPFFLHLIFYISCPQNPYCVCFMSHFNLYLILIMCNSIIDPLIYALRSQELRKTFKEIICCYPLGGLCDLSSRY
In assay [7] the target is Mu-type opioid receptor (Cavia porcellus, UniProt P97266). As to the kind of experiment: Agonist activity at mu opioid receptor in guinea pig ileum assessed as inhibition of electrically-stimulated muscle contraction. The format is functional, tissue-based.
Chain of Mu-type opioid receptor (Cavia porcellus, UniProt P97266) (P97266 whole entry): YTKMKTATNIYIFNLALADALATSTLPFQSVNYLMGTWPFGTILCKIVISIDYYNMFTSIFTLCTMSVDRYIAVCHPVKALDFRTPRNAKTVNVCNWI
The species entered for another assay is Cavia porcellus. Nature of the assay: […] activity at CCK receptor in Hartley guinea pig ileum longitudinal muscle with myenteric plexus assessed as inhibition of CCK8-stimulated muscle contraction at 1 uM. The format is functional, tissue-based.
The species named for another assay is Homo sapiens. As to the kind of experiment: Selectivity ratio of Ki for human CCK1 receptor to Ki for human CCk2 receptor.

As a reminder, the IC50 is the midpoint of a concentration-inhibition curve. In general, Ki refers to the dissociation constant of the complex between target and ligand, obtained from inhibition or displacement.

Molecules are shown by their SMILES. Calls of active or inactive are those of the source. The rule behind the calls is not given here. Where a SMILES comes first, the peptide text is derived from it. [ ]: non-standard residue; d: D form. Nle = CCCC[C@H](N)C(=O)O

Chain of Delta-type opioid receptor (Homo sapiens, UniProt P41143) (P41143 whole entry): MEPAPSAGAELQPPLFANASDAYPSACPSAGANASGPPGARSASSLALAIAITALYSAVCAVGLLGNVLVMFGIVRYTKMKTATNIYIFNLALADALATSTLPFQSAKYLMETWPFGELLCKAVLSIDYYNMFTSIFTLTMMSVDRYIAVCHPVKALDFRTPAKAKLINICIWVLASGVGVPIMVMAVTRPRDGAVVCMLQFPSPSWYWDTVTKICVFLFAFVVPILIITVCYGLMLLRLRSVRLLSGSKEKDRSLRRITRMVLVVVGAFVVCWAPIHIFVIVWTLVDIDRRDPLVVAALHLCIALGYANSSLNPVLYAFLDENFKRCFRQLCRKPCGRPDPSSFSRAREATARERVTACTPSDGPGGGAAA
Chain of Delta-type opioid receptor (Mus musculus, UniProt P32300) (P32300 whole entry): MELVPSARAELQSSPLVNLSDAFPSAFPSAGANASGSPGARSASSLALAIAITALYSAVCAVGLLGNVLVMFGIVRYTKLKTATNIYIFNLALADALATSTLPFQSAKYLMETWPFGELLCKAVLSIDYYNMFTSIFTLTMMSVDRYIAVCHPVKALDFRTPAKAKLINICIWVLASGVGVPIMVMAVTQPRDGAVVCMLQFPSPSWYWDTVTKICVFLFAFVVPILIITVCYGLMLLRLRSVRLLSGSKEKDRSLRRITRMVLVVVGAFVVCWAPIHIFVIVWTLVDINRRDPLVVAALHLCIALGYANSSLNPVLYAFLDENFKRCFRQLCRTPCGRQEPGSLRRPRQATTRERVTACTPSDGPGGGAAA
Chain of Mu-type opioid receptor (Rattus norvegicus, UniProt P33535) (P33535 whole entry): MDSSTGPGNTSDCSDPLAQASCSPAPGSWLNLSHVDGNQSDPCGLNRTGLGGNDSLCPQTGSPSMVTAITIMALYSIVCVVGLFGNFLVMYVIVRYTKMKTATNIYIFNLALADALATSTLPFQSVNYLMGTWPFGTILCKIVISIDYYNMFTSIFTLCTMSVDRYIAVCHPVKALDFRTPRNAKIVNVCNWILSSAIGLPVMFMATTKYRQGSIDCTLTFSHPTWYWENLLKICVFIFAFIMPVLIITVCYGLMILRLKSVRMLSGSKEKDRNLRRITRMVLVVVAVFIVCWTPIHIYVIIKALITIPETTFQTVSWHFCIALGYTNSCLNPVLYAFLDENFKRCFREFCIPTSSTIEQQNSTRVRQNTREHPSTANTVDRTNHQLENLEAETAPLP

As for `CCCC[C@H](NC(=O)[C@H](Cc1c[nH]c2ccccc12)NC(=O)[C@H](CCCNC(=N)N)NC(=O)[C@@H](Cc1ccccc1)NC(=O)[C@H](Cc1cnc[nH]1)NC(=O)[C@H](Cc1ccccc1)NC(=O)CNC(=O)[C@@H](C)NC(=O)[C@@H](N)Cc1ccc(O)cc1)C(=O)N[C@@H](CC(=O)O)C(=O)N[C@@H](Cc1ccccc1)C(N)=O`, the IC50 was 40 nM in [1]; 12.6 nM in assay [3]; 31.6 nM at Mu-type opioid receptor [4]; 2510 nM in assay [5]; 31.6 nM in assay [6]; 1300 nM on Melanocortin receptor 4. In addition, the IC50 at Mu-type opioid receptor [7] worked out at 130 nM. In assay [2], the Activity was 0%. The Ki in [3] came to 6.2 nM; at Mu-type opioid receptor [4], 14 nM; in assay [5] (read-out: Ki), 1400 nM; in assay [6] (read-out: Ki), 18 nM. The Ke entry in the assay filed under Cavia porcellus is “inactive”.
Take `CCCC[C@H](NC(=O)[C@H](Cc1c[nH]c2ccccc12)NC(=O)[C@H](CCCNC(=N)N)NC(=O)[C@@H](Cc1ccc2ccccc2c1)NC(=O)[C@H](Cc1cnc[nH]1)NC(=O)[C@H]1Cc2ccccc2CN1C(=O)[C@@H](N)Cc1c(C)cc(O)cc1C)C(=O)N[C@@H](CC(=O)O)C(=O)N[C@@H](Cc1ccccc1)C(N)=O`: the Activity in [2] was found to be 0%. For the same compound, the Ke result in the assay listed under Cavia porcellus was “inactive”.
For `CCCC[C@H](NC(=O)[C@H](Cc1c[nH]c2ccccc12)NC(=O)[C@H](CCCNC(=N)N)NC(=O)[C@@H](Cc1ccc2ccccc2c1)NC(=O)[C@H](Cc1cnc[nH]1)NC(=O)[C@H](Cc1ccccc1)NC(=O)[C@@H](C)NC(=O)[C@@H](N)Cc1c(C)cc(O)cc1C)C(=O)N[C@@H](CC(=O)O)C(=O)N[C@@H](Cc1ccccc1)C(N)=O` the same measures were 0% and “inactive”.
For `C[C@@H](NC(=O)[C@@H](N)Cc1ccc(O)cc1)C(=O)NCC(=O)N[C@@H](Cc1ccccc1)C(=O)NCCCC[C@H](NC(=O)[C@H](Cc1c[nH]c2ccccc12)NC(=O)[C@H](CCCN=C(N)N)NC(=O)[C@@H](Cc1ccc(Cl)cc1)NC(=O)[C@@H](N)Cc1cnc[nH]1)C(=O)N[C@@H](CC(=O)O)C(=O)N[C@@H](Cc1ccccc1)C(N)=O`, the IC50 at Mu-type opioid receptor [7] was 330 nM.
Regarding `CCCC[C@H](NC(=O)[C@H](Cc1c[nH]c2ccccc12)NC(=O)[C@H](CCCN=C(N)N)NC(=O)[C@@H](Cc1ccc2ccccc2c1)NC(=O)[C@H](Cc1cnc[nH]1)NC(=O)[C@@H](N)Cc1ccccc1)C(N)=O`, the IC50 at Melanocortin receptor 4 worked out at 200 nM.
For the compound `Cc1cc(O)cc(C)c1C[C@H](N)C(=O)N1CC(=O)N[C@@H](Cc2cnc[nH]2)C(=O)N[C@H](Cc2ccccc2)C(=O)N[C@@H](CCCNC(=N)N)C(=O)N[C@@H](Cc2c[nH]c3ccccc23)C(=O)N[C@H](C(=O)N[C@@H](CC(=O)O)C(=O)N[C@@H](Cc2ccccc2)C(N)=O)CSSC[C@@H](N)C1=O`, in assay [2], the Activity amounted to 0%. In assay [6] (hek293), the Ki entry is recorded as “Not Active”. Moreover, in the assay listed under Cavia porcellus, the Ke entry is “inactive”.
In the case of `CCCC[C@H](NC(=O)[C@H](Cc1c[nH]c2ccccc12)NC(=O)[C@H](CCCN=C(N)N)NC(=O)[C@@H](Cc1ccc2ccccc2c1)NC(=O)[C@H](Cc1cnc[nH]1)NC(=O)[C@H]1Cc2ccccc2CN1C(=O)[C@@H](N)Cc1c(C)cc(O)cc1C)C(=O)N[C@@H](CC(=O)O)C(=O)N[C@@H](Cc1ccccc1)C(N)=O`, the IC50 was 130 nM in [1]; 12.6 nM in assay [3]; 39.8 nM at Mu-type opioid receptor [4]; 31.6 nM in [5]; 126 nM in [6]; 160 nM at Melanocortin receptor 4. Besides, the IC50 at Mu-type opioid receptor [7] was 570 nM. Also, the Ki in assay [3] was determined as 6.2 nM; at Mu-type opioid receptor [4], 18 nM; in [5] (read-out: Ki), 32 nM; in [6] (read-out: Ki), 100 nM.
Consider `CCCC[C@H](NC(=O)[C@H](Cc1c[nH]c2ccccc12)NC(=O)[C@H](CCCNC(=N)N)NC(=O)[C@@H](Cc1ccc2ccccc2c1)NC(=O)[C@H](Cc1cnc[nH]1)NC(=O)[C@H](Cc1ccccc1)NC(=O)[C@@H](C)NC(=O)[C@@H](N)Cc1ccc(O)cc1)C(=O)N[C@@H](CC(=O)O)C(=O)N[C@@H](Cc1ccccc1)C(N)=O`, for which the IC50 was 370 nM in assay [1]; 79.4 nM in assay [3]; 501 nM at Mu-type opioid receptor [4]; 1.58 nM in [5]; 200 nM in [6]; 700 nM at Melanocortin receptor 4. Further, the IC50 at Mu-type opioid receptor [7] was determined as 2300 nM. In assay [2], the Activity is 0%. The Ki in assay [3] came to 42 nM; at Mu-type opioid receptor [4] it was 250 nM; in assay [5] (read-out: Ki), 1.6 nM; in [6] (read-out: Ki) it was 190 nM. For the same compound, in the assay listed under Cavia porcellus, the Ke result is “inactive”. For the same compound, in the assay filed under Homo sapiens, the Ratio Ki is 119.
`CCCC[C@H](NC(=O)[C@H](Cc1c[nH]c2ccccc12)NC(=O)[C@H](CCCN=C(N)N)NC(=O)[C@@H](Cc1ccc2ccccc2c1)NC(=O)[C@H](Cc1cnc[nH]1)NC(=O)[C@H](Cc1ccccc1)NC(=O)[C@@H](C)NC(=O)[C@@H](N)Cc1c(C)cc(O)cc1C)C(=O)N[C@@H](CC(=O)O)C(=O)N[C@@H](Cc1ccccc1)C(N)=O`: the IC50 was 110 nM in assay [1]; 7.94 nM in assay [3]; 10 nM on Mu-type opioid receptor [4]; 0.794 nM in assay [5]; 200 nM in assay [6]; 500 nM on Melanocortin receptor 4. Besides, the IC50 on Mu-type opioid receptor [7] is 66 nM. The Ki in assay [3] amounted to 3.7 nM; on Mu-type opioid receptor [4] it was 4.9 nM; in assay [6] (read-out: Ki), 180 nM.
Turning to `Cc1cc(O)cc(C)c1C[C@H](N)C(=O)N1CC(=O)N[C@@H](Cc2cnc[nH]2)C(=O)N[C@H](Cc2ccc3ccccc3c2)C(=O)N[C@@H](CCCNC(=N)N)C(=O)N[C@@H](Cc2c[nH]c3ccccc23)C(=O)N[C@H](C(=O)N[C@@H](CC(=O)O)C(=O)N[C@@H](Cc2ccccc2)C(N)=O)CSSC[C@@H](N)C1=O`, the IC50 in [1] was 610 nM; in assay [3], 12.6 nM; at Mu-type opioid receptor [4], 12.6 nM; at Melanocortin receptor 4, 440 nM; on Mu-type opioid receptor [7], 280 nM. In assay [2], the Activity is given as 0%. In addition, the Ki in [3] is 5.6 nM; on Mu-type opioid receptor [4], 5.9 nM; in [5] (hek293), “Not Active”; in [6] (hek293), “Not Active”. Moreover, the Ke result in the assay filed under Cavia porcellus was “inactive”.
For the compound `CCCC[C@H](NC(=O)[C@H](Cc1c[nH]c2ccccc12)NC(=O)[C@H](CCCNC(=N)N)NC(=O)[C@@H](Cc1ccc2ccccc2c1)NC(=O)[C@H](Cc1cnc[nH]1)NC(=O)[C@H](Cc1ccccc1)NC(=O)CNC(=O)[C@@H](C)NC(=O)[C@@H](N)Cc1ccc(O)cc1)C(=O)N[C@@H](CC(=O)O)C(=O)N[C@@H](Cc1ccccc1)C(N)=O`, the IC50 in assay [1] was 60 nM; in assay [3], 6.31 nM; at Mu-type opioid receptor [4] it was 1.26 nM; in [5], 10 nM; in assay [6], 126 nM; at Melanocortin receptor 4, 260 nM. In addition, the IC50 on Mu-type opioid receptor [7] came out at 200 nM. Besides, the Activity in assay [2] was 0%. Besides, the Ki in [3] is 2.9 nM; on Mu-type opioid receptor [4] it was 0.69 nM; in assay [5] (read-out: Ki), 9 nM; in assay [6] (read-out: Ki) it was 120 nM. The Ke result in the assay filed under Cavia porcellus is “inactive”. Further, the Ratio Ki in the assay filed under Homo sapiens worked out at 0.075.
As to `C[C@@H](NC(=O)[C@@H](N)Cc1ccc(O)cc1)C(=O)NCC(=O)N[C@@H](Cc1ccccc1)C(=O)NCCCC[C@H](NC(=O)[C@H](Cc1c[nH]c2ccccc12)NC(=O)[C@H](CCCNC(=N)N)NC(=O)[C@@H](Cc1ccc(Cl)cc1)NC(=O)[C@@H](N)Cc1cnc[nH]1)C(=O)N[C@@H](CC(=O)O)C(=O)N[C@@H](Cc1ccccc1)C(N)=O`, the Activity in assay [2] is recorded as 0%. Also, the Ki result in assay [5] (hek293) and in assay [6] (hek293) was “Not Active” in each case. For the same compound, in the assay filed under Cavia porcellus, the Ke result is “inactive”.
With `CCCC[C@H](NC(=O)[C@@H](N)Cc1ccc(O)cc1)C(=O)N[C@@H](CC(=O)O)C(=O)N[C@@H](Cc1ccccc1)C(N)=O` (H-Y[Nle]DF-NH2), in assay [5] (hek293), the Ki entry is listed as “Not Active”.
